Laboratory results as given in patent publication US8435929B2, “1-aminocyclopropane carboxylic acid as a fruit thinner” (Valent BioSciences Corporation, priority 2009, dated 2013).

Columns and labels:
Babygold #5 peach [1] = assay: Field thinning study, fruit set of Babygold #5 peach; assay type: in vivo
Protocol: (§1) A series of field studies on stone fruit thinning were performed over several seasons, on different varieties and in various locations to determine the consistency of the thinning effect of ACC. Even without the application of a chemical thinning agent, crop load (number of fruit remaining divided by the number of flowers or fruit prior to application) was variable. Chemical thinning of stone fruit is variable and dependent on many factors including variety and environment. An acceptable chemical thinning agent is one that gives a substantial and relatively consistent reduction in crop load for a given dose over a wide range of trials.
The effect of ACC rate and timing was determined. ACC was sprayed on Babygold #5 peach trees at bloom (Table 1) or shuck split (early fruitlet stage) (Table 2).

Tatura 204 peaches = assay: Field thinning study, fruit set of Tatura 204 peaches; assay type: in vivo, peach; conditions: application at late shuck fall
Protocol: as §1
ACC was sprayed on Tatura 204 peach trees at late shuck fall (Table 3).

Garnet Beauty peaches = assay: Field thinning study, fruit set of Garnet Beauty peaches; assay type: in vivo, peach; conditions: application at petal fall
Protocol: as §1
Follow up studies confirmed that higher rates (500 or 750 ppm ACC) produced a moderate to heavy crop load on Babygold #5 at two locations (Tables 8 and 9) and Garnet Beauty (Table 10).

Rose Diamond nectarines = assay: Field thinning study, fruit set of Rose Diamond nectarines; assay type: in vivo, nectarine; conditions: application at late shuck fall
Fuji apples = assay: Field thinning study, fruit set and fruit weight of Fuji apples; assay type: in vivo, apple
Source text: ACC was foliar applied at the 10 or 20 mm fruit stage. […] Application of 100 ppm ACC was particularly effective in removing fruit when applied at the 20 mm fruit stage.
Similarly, ACC applications at petal fall were not effective for thinning Fuji apples, but later applications (10 and 20 mm) were effective (Table 14).

cotton cotyledons = assay: Cotton cotyledon bioassay, ethylene production; assay type: in vivo
Source text: For laboratory and growth chamber studies, deionized ultra-pure water was used in preparing solutions. Spray solutions were used as soon as possible after mixing. All spray solutions were amended with spray adjuvants as appropriate. A cotton cotyledon bioassay was used in the laboratory to study the effects of ACC or ethephon on induction of ethylene. Ten day old cotton plants with fully expanded cotyledons were used. Sprays were made to the upper (adaxial) surface of the leaves and the plants were then incubated in growth cabinets at the temperatures indicated. The cotyledons were excised at the times indicated and placed in sealed plastic vials. Headspace ethylene samples were measured on a Hewlett Packard 5890 gas chromatograph equipped with a packed Haysep T column (Alltech, Deerfield, Ill.) and a flame ionization detector.
Selected characteristics of ACC conversion to ethylene (i.e. dose response, time course, and temperature effect) were assessed to determine whether the relative consistence of ACC as a stone fruit and apple thinner was related to performance as an ethylene producer. In these bioassays, ACC solutions were applied to cotton cotyledons by a hand sprayer at the doses indicated and all spray solutions contained 0.05% (v/v) L-77.
In the first study, the effect of ACC dose sprays on ethylene produced by cotton cotyledons was determined. (Table 16). Cotton plants were sprayed with solution (ACC at 1, 10, 25, 50, 100, 250, 500, or 1000 ppm) and the cotyledons were excised 6 or 24 h after spraying and incubated in sealed tubes for 4 h. Ethylene levels were determined production was assayed.
In the second study, the time course of ethylene production following application of 500 mg/liter ACC or ethephon was determined (Table 17).
In the third study, the effect of temperature on ethylene production following ACC or ethephon application was determined (Table 18). The incubation of the plants following spraying and the incubation of the detached leaves were performed at 25 and 35° C.

Babygold #5 peach [2] = assay: Field thinning study, fruit set of Babygold #5 peach; assay type: in vivo; remark: listed apart in the source
[3] = 100 ppm, application at shuck split, 0.05% Regulaid adjuvant
[4] = 300 ppm, application at shuck split, 0.05% Regulaid adjuvant
[5] = 1000 ppm, application at shuck split, 0.05% Regulaid adjuvant
[6] = 100 ppm, application timing 10 mm
[7] = 100 ppm, application timing 20 mm
[8] = 300 ppm, application timing 10 mm
[9] = 300 ppm, application timing 20 mm
[10] = 1000 ppm, application timing 10 mm
[11] = 1000 ppm, application timing 20 mm
[12] = 500 ppm, application at petal fall, trial of Table 4
[13] = 500 ppm, application at petal fall, trial of Table 5 (other location)
[14] = 750 ppm, application at petal fall, trial of Table 4
[15] = 750 ppm, application at petal fall, trial of Table 5 (other location)

With `NC1(C(=O)O)CC1` [ACC, 1-aminocyclopropane carboxylic acid] the “Crop load (percent) of treated trees compared to the water control” value (“Crop load (percent) … to the water control” for short) (Babygold #5 peach [1]; 100 ppm, application at bloom) was 90%, the “Crop load (percent) … to the water control” value (Babygold #5 peach [1]; [3]) was 102% and the “Crop load (percent) … to the water control” value (Babygold #5 peach [1]; 300 ppm, application at bloom) was 77%. The Percent fruit set (Babygold #5 peach [1]; 300 ppm, application at bloom) was 57%, the Percent fruit set (Babygold #5 peach [1]; [4]) was 61% and the “Crop load (percent) … to the water control” value (Babygold #5 peach [1]; 1000 ppm, application at bloom) was 40%. For the same compound, the Percent fruit set (Babygold #5 peach [1]; 1000 ppm, application at bloom) was 30%, the Percent fruit set (Babygold #5 peach [1]; [5]) was 11% and the “Crop load (percent) of treated trees compared to the untreated control” value (“Crop load (percent) … to the untreated control” below) (Tatura 204 peaches; 100 ppm) was 86%. The Percent fruit set (Tatura 204 peaches; 100 ppm) was 65%, the “Crop load (percent) … to the untreated control” value (Tatura 204 peaches; 300 ppm) was 57% and the Percent fruit set (Tatura 204 peaches; 300 ppm) was 43%. The “Crop load (percent) … to the untreated control” value (Tatura 204 peaches; 500 ppm) was 39%, the Percent fruit set (Tatura 204 peaches; 500 ppm) was 30% and the “Crop load (percent) … to the untreated control” value (Tatura 204 peaches; 1000 ppm) was 36%. For the same compound, the Percent fruit set (Tatura 204 peaches; 1000 ppm) was 27%, the “Crop load (percent) … to the untreated control” value (Garnet Beauty peaches; 500 ppm) was 82% and the Percent fruit set (Garnet Beauty peaches; 500 ppm) was 27%. For the same compound, the “Crop load (percent) … to the untreated control” value (Garnet Beauty peaches; 750 ppm) was 58%, the Percent fruit set (Garnet Beauty peaches; 750 ppm) was 19% and the “Crop load (percent) … to the untreated control” value (Rose Diamond nectarines; 125 ppm) was 88%. For the same compound, the Percent fruit set (Rose Diamond nectarines; 125 ppm) was 60%, the “Crop load (percent) … to the untreated control” value (Rose Diamond nectarines; 250 ppm) was 90% and the Percent fruit set (Rose Diamond nectarines; 250 ppm) was 61%. The “Crop load (percent) … to the untreated control” value (Rose Diamond nectarines; 500 ppm) was 65%, the Percent fruit set (Rose Diamond nectarines; 500 ppm) was 44% and the “Crop load (percent) … to the untreated control” value (Rose Diamond nectarines; 1000 ppm) was 24%. The Percent fruit set (Rose Diamond nectarines; 1000 ppm) was 16%, the “Fruit weight” value (Fuji apples; [6]) was 95 g and the Fruit/fruit cluster (Fuji apples; [6]) was 0.79. The “Fruit weight” value (Fuji apples; [7]) was 130 g, the Fruit/fruit cluster (Fuji apples; [7]) was 0.54 and the “Fruit weight” value (Fuji apples; [8]) was 117 g. For the same compound, the Fruit/fruit cluster (Fuji apples; [8]) was 0.66, the “Fruit weight” value (Fuji apples; [9]) was 132 g and the Fruit/fruit cluster (Fuji apples; [9]) was 0.41. The “Fruit per fruit cluster” value (Fuji apples; 500 ppm, timing 10 mm (6-7 mm) (Table 14 trial)) was 0.27, the “Fruit per fruit cluster” value (Fuji apples; 500 ppm, timing 20 mm (Table 14 trial)) was 0.33 and the “Fruit per fruit cluster” value (Fuji apples; 500 ppm, timing petal fall (Table 14 trial)) was 0.49. For the same compound, the “Fruit weight” value (Fuji apples; [10]) was 157 g, the Fruit/fruit cluster (Fuji apples; [10]) was 0.28 and the “Fruit weight” value (Fuji apples; [11]) was 161 g. The Fruit/fruit cluster (Fuji apples; [11]) was 0.03, the “Fruit per fruit cluster” value (Fuji apples; 1000 ppm, timing 10 mm (6-7 mm) (Table 14 trial)) was 0.10 and the “Fruit per fruit cluster” value (Fuji apples; 1000 ppm, timing petal fall (Table 14 trial)) was 0.39. The “Thinning of Fuji apples (in words)” value (Fuji apples; applications at petal fall) was “not effective”, the Ethylene production (cotton cotyledons; 10 ppm, 6 h after spraying, 25 C) was 4.2 nl/g leaf weight/h incubated and the Ethylene production (cotton cotyledons; 10 ppm, 24 h after spraying, 25 C) was 13.7 nl/g leaf weight/h incubated. The Ethylene production (cotton cotyledons; 25 ppm, 6 h after spraying, 25 C) was 5.9 nl/g leaf weight/h incubated, the Ethylene production (cotton cotyledons; 25 ppm, 24 h after spraying, 25 C) was 22.8 nl/g leaf weight/h incubated and the Ethylene production (cotton cotyledons; 50 ppm, 6 h after spraying, 25 C) was 8.3 nl/g leaf weight/h incubated. The Ethylene production (cotton cotyledons; 50 ppm, 24 h after spraying, 25 C) was 32.4 nl/g leaf weight/h incubated, the Ethylene production (cotton cotyledons; 100 ppm, 6 h after spraying, 25 C) was 11.8 nl/g leaf weight/h incubated and the Ethylene production (cotton cotyledons; 100 ppm, 24 h after spraying, 25 C) was 45.2 nl/g leaf weight/h incubated. The Ethylene production (cotton cotyledons; 200 ppm, 24 h after application, incubated at 25 C) was 35.7 nl/g leaf weight/h incubated, the Ethylene production (cotton cotyledons; 200 ppm, 24 h after application, incubated at 35 C) was 19.9 nl/g leaf weight/h incubated and the Ethylene production (cotton cotyledons; 250 ppm, 6 h after spraying, 25 C) was 19.4 nl/g leaf weight/h incubated. For the same compound, the Ethylene production (cotton cotyledons; 250 ppm, 24 h after spraying, 25 C) was 59.8 nl/g leaf weight/h incubated, the Ethylene production (cotton cotyledons; 500 ppm, 1 h following spray application, 25 C (time course)) was 62.8 nl/g leaf weight/h incubated and the Ethylene production (cotton cotyledons; 500 ppm, 4 h following spray application, 25 C (time course)) was 36.7 nl/g leaf weight/h incubated. For the same compound, the Ethylene production (cotton cotyledons; 500 ppm, 6 h after spraying, 25 C) was 22.8 nl/g leaf weight/h incubated, the Ethylene production (cotton cotyledons; 500 ppm, 15 h following spray application, 25 C (time course)) was 45.7 nl/g leaf weight/h incubated and the Ethylene production (cotton cotyledons; 500 ppm, 24 h after spraying, 25 C) was 64.4 nl/g leaf weight/h incubated. The Ethylene production (cotton cotyledons; 500 ppm, 24 h following spray application, 25 C (time course)) was 49.3 nl/g leaf weight/h incubated, the Ethylene production (cotton cotyledons; 500 ppm, 48 h following spray application, 25 C (time course)) was 45.3 nl/g leaf weight/h incubated and the Ethylene production (cotton cotyledons; 1000 ppm, 6 h after spraying, 25 C) was 25.1 nl/g leaf weight/h incubated. For the same compound, the Ethylene production (cotton cotyledons; 1000 ppm, 24 h after spraying, 25 C) was 92.1 nl/g leaf weight/h incubated, the Percent fruit set (Babygold #5 peach [2]; 100 ppm, application at bloom) was 67% and the Percent fruit set (Babygold #5 peach [2]; [3]) was 85%. The “Crop load (percent) … to the water control” value (Babygold #5 peach [2]; [4]) was 72%, the “Percent Fruit Set” value (Babygold #5 peach [2]; 500 ppm, 10 mm fruitlet timing) was 6.7% and the “Crop load (percent) … to the untreated control” value (Babygold #5 peach [2]; [12]) was 67%. The Percent fruit set (Babygold #5 peach [2]; [12]) was 32%, the “Crop load (percent) … to the untreated control” value (Babygold #5 peach [2]; [13]) was 98% and the Percent fruit set (Babygold #5 peach [2]; [13]) was 42%. For the same compound, the “Crop load (percent) … to the untreated control” value (Babygold #5 peach [2]; [14]) was 50%, the Percent fruit set (Babygold #5 peach [2]; [14]) was 24% and the “Crop load (percent) … to the untreated control” value (Babygold #5 peach [2]; [15]) was 72%. For the same compound, the Percent fruit set (Babygold #5 peach [2]; [15]) was 31% and the “Crop load (percent) … to the water control” value (Babygold #5 peach [2]; [5]) was 14%.
